Measurements taken from patent US11993582B2, “Crystalline forms of a LTA4H inhibitor” (Novartis AG, priority 2018, dated 2024).
Converted amounts (≈) assume the structure as drawn.

Key:
Assay type in all cases: physicochemical
[1] = Competitive slurry experiments at different water activities
Experimental: Competitive slurry experiments at different water activities at 25° C. and at 50° C. were performed. Competitive slurries of a (1:1) physical mixture of Modifications HB and B at different water activities were also performed.

Hygroscopicity by DVS = assay: Hygroscopicity by DVS
Excerpt: Crystalline form HB is a hydrated form of (S)-3-amino-4-(5-(4-((5-chloro-3-fluoropyridin-2-yl)oxy)phenyl)-2H-tetrazol-2-yl)butanoic acid.

[2] = Stability in solvent: equilibration of Form HB with solvent, residue analysed by XRPD; conditions: slurry experiments
Experimental: Equilibrations with solvent were carried out to investigate the relative stability of form HB in solvent. 50 mg of Form HB is equilibrated with 1 mL solvent for 24 h (or 7 days, or 28 days) in a water bath at 25° C. or for 7 days at 50° C. The solutions are filtered and dried for 10 minutes in air. The resulting solid is analyzed by XRPD.
Various solvent were investigated: acetone, acetonitrile, dichloromethane, dioxane, ethanol, heptane, methanol, THF, acetone/water mixtures from 10/90 to 90/10, acetonitrile/water mixtures from 10/90 to 90/10, dioxane/water mixtures from 10/90 to 90/10 and ethanol/water mixture from 10/90 to 90/10, tetrahydrofuran/water (50/50) and 1-propanol/water (70/30).

[3] = Solubility in aqueous buffers and bio-relevant media
[4] = Solid state stability in bulk (HPLC degradation products, XRPD)
Experimental: The chemical and physical stability of form B and form HB was investigated, exposing the individual forms to high humidity at temperatures ranging from 25-80° C.
The degradation products were analyzed by HPLC and the sample was analyzed by XPRD to detect any changes to the solid state.

SMILES: N[C@@H](CC(=O)O)Cn1nnc(-c2ccc(Oc3ncc(Cl)cc3F)cc2)n1 (mixture of isomers) [Physical mixture of HB and B (1:1), (S)-3-amino-4-(5-(4-((5-chloro-3-fluoropyridin-2-yl)oxy)phenyl)-2H-tetrazol-2-yl)butanoic acid]
- Solid form after competitive slurry ([1]; 25 Degrees Celsius, Acetonitrile, aw 0.00, 2 days): Form B
- Solid form after competitive slurry ([1]; 25 Degrees Celsius, Acetonitrile, aw 0.00, 5 days): Form B
- Solid form after competitive slurry ([1]; 25 Degrees Celsius, Acetonitrile/water (83:17), aw 0.93, 2 days): Forms HB + B
- Solid form after competitive slurry ([1]; 25 Degrees Celsius, Acetonitrile/water (83:17), aw 0.93, 5 days): Forms HB + B
- Solid form after competitive slurry ([1]; 25 Degrees Celsius, Acetonitrile/water (88:12), aw 0.90, 2 days): Forms HB + B
- Solid form after competitive slurry ([1]; 25 Degrees Celsius, Acetonitrile/water (88:12), aw 0.90, 5 days): Forms HB + B
- Solid form after competitive slurry ([1]; 25 Degrees Celsius, Acetonitrile/water (92:8), aw 0.82, 2 days): Forms HB + B
- Solid form after competitive slurry ([1]; 25 Degrees Celsius, Acetonitrile/water (92:8), aw 0.82, 5 days): Forms HB + B
- Solid form after competitive slurry ([1]; 25 Degrees Celsius, Acetonitrile/water (97:3), aw 0.50, 2 days): Forms HB + B
- Solid form after competitive slurry ([1]; 25 Degrees Celsius, Acetonitrile/water (97:3), aw 0.50, 5 days): Form B
- Solid form after competitive slurry ([1]; 25 Degrees Celsius, Acetonitrile/water (98:2), aw 0.44, 2 days): Form B
- Solid form after competitive slurry ([1]; 25 Degrees Celsius, Acetonitrile/water (98:2), aw 0.44, 5 days): Form B
- Solid form after competitive slurry ([1]; 25 Degrees Celsius, Methanol, aw 0.00, 2 days): Form B
- Solid form after competitive slurry ([1]; 25 Degrees Celsius, Methanol, aw 0.00, 5 days): Form B
- Solid form after competitive slurry ([1]; 25 Degrees Celsius, Methanol/water (22:78), aw 0.90, 2 days): Forms HB + B
- Solid form after competitive slurry ([1]; 25 Degrees Celsius, Methanol/water (22:78), aw 0.90, 5 days): Forms HB + B
- Solid form after competitive slurry ([1]; 25 Degrees Celsius, Methanol/water (57:43), aw 0.70, 2 days): Forms HB + B
- Solid form after competitive slurry ([1]; 25 Degrees Celsius, Methanol/water (57:43), aw 0.70, 5 days): Forms HB + B
- Solid form after competitive slurry ([1]; 25 Degrees Celsius, Methanol/water (77:23), aw 0.50, 2 days): Form B
- Solid form after competitive slurry ([1]; 25 Degrees Celsius, Methanol/water (77:23), aw 0.50, 5 days): Form B
- Solid form after competitive slurry ([1]; 25 Degrees Celsius, Methanol/water (89:11), aw 0.30, 2 days): Form B
- Solid form after competitive slurry ([1]; 25 Degrees Celsius, Methanol/water (89:11), aw 0.30, 5 days): Form B
- Solid form after competitive slurry ([1]; 25 Degrees Celsius, Methanol/water (97:3), aw 0.11, 2 days): Form B
- Solid form after competitive slurry ([1]; 25 Degrees Celsius, Methanol/water (97:3), aw 0.11, 5 days): Form B
- Solid form after competitive slurry ([1]; 25 Degrees Celsius, Water, aw 1.00, 2 days): Forms HB + B
- Solid form after competitive slurry ([1]; 25 Degrees Celsius, Water, aw 1.00, 5 days): Forms HB + B
- Water activity (aw) at which the mixture converted into pure Form B ([1]; 25° C.): ≤ 0.5
- Solid form after competitive slurry ([1]; 25° C., water activities above aw 0.5): remained unchanged
- Solid form after competitive slurry ([1]; 50 degrees, Acetonitrile, aw 0.00, 2 days): Form B
- Solid form after competitive slurry ([1]; 50 degrees, Acetonitrile, aw 0.00, 5 days): Form B
- Solid form after competitive slurry ([1]; 50 degrees, Acetonitrile/water (83:17), aw 0.90, 2 days): Forms B + HB
- Solid form after competitive slurry ([1]; 50 degrees, Acetonitrile/water (83:17), aw 0.90, 5 days): Form B
- Solid form after competitive slurry ([1]; 50 degrees, Acetonitrile/water (88:12), aw 0.86, 2 days): Form B
- Solid form after competitive slurry ([1]; 50 degrees, Acetonitrile/water (88:12), aw 0.86, 5 days): Form B
- Solid form after competitive slurry ([1]; 50 degrees, Acetonitrile/water (92:8), aw 0.77, 2 days): Form B
- Solid form after competitive slurry ([1]; 50 degrees, Acetonitrile/water (92:8), aw 0.77, 5 days): Form B
- Solid form after competitive slurry ([1]; 50 degrees, Acetonitrile/water (97:3), aw 0.46, 2 days): Form B
- Solid form after competitive slurry ([1]; 50 degrees, Acetonitrile/water (97:3), aw 0.46, 5 days): Form B
- Solid form after competitive slurry ([1]; 50 degrees, Acetonitrile/water (98:2), aw 0.34, 2 days): Form B
- Solid form after competitive slurry ([1]; 50 degrees, Acetonitrile/water (98:2), aw 0.34, 5 days): Form B
- Solid form after competitive slurry ([1]; 50 degrees, Methanol, aw 0.00, 2 days): Form B
- Solid form after competitive slurry ([1]; 50 degrees, Methanol, aw 0.00, 5 days): Form B
- Solid form after competitive slurry ([1]; 50 degrees, Methanol/water (22:78), aw 0.90, 2 days): Forms HB + B
- Solid form after competitive slurry ([1]; 50 degrees, Methanol/water (22:78), aw 0.90, 5 days): Forms B + HB
- Solid form after competitive slurry ([1]; 50 degrees, Methanol/water (57:43), aw 0.71, 2 days): Form B
- Solid form after competitive slurry ([1]; 50 degrees, Methanol/water (57:43), aw 0.71, 5 days): Form B
- Solid form after competitive slurry ([1]; 50 degrees, Methanol/water (77:23), aw 0.51, 2 days): Form B
- Solid form after competitive slurry ([1]; 50 degrees, Methanol/water (77:23), aw 0.51, 5 days): Form B
- Solid form after competitive slurry ([1]; 50 degrees, Methanol/water (89:11), aw 0.31, 2 days): Form B
- Solid form after competitive slurry ([1]; 50 degrees, Methanol/water (89:11), aw 0.31, 5 days): Form B
- Solid form after competitive slurry ([1]; 50 degrees, Methanol/water (97:3), aw 0.21, 2 days): Form B
- Solid form after competitive slurry ([1]; 50 degrees, Methanol/water (97:3), aw 0.21, 5 days): Form B
- Solid form after competitive slurry ([1]; 50 degrees, Water, aw 1.00, 2 days): Forms B + HB
- Solid form after competitive slurry ([1]; 50 degrees, Water, aw 1.00, 5 days): Forms HB + B
- Maximum water activity (aw) for transformation to Form B ([1]; 50° C.): ≤ 0.7

SMILES: N[C@@H](CC(=O)O)Cn1nnc(-c2ccc(Oc3ncc(Cl)cc3F)cc2)n1 [Form B, (S)-3-amino-4-(5-(4-((5-chloro-3-fluoropyridin-2-yl)oxy)phenyl)-2H-tetrazol-2-yl)butanoic acid]
- Maximum water uptake (Hygroscopicity by DVS; 25° C. at 90% RH by DVS): less than 0.7%
- Hygroscopicity (Hygroscopicity by DVS; by DVS): slightly hygroscopic
- Form conversion through slurry [2]: does not transform into other form
- solubility ([3]; FaSSIF-V2 (pH=6.6)): 0.07 mg/mL (≈ 178 µM)
- solubility ([3]; FeSSIF-V2 (pH=5.9)): 0.18 mg/mL (≈ 458 µM)
- solubility ([3]; aqueous buffers, aqueous buffer, pH values of 4 to 7): 0.05 mg/mL (≈ 127 µM)
- Hydrate formation ([4]; 1 week at 40° C./90% RH): no hydrate formation was detected
- Stability in bulk ([4]; 1 week at 40° C./90% RH): stable
- Chemical and physical stability in bulk ([4]; test conditions 1-5: 1 week, tight or open container, room temperature to 80° C., up to 92% RH): displayed good stability and did not convert at all
